Measurements taken from PMC10333884, “Large‐scale phosphomimetic screening identifies phospho‐modulated motif‐based protein interactions” (Molecular Systems Biology, 2023).
Read-outs that look alike come from different tables or passages of the source. Non-standard residues stand in square brackets, D forms with d. Residues, ends and D or L forms follow the SMILES beside them. pT = C[C@@H](OP(=O)(O)O)[C@H](N)C(=O)O

Experiments:
Format in all cases: binding
[1] = biological target: T1, GABARAPL2 (Homo sapiens, UniProt P60520); assay: FP displacement assay, GABARAPL2
T1 construct: GABARAPL2_ATG8__P60520_2_115; GST (cleaved yes); made in house; host or cells: Escherichia coli BL21-Gold(DE3)
Procedure: (§1) FP experiments were performed as described previously (Kliche et al, [2021]). Shortly, in order to monitor the binding event, FITC‐labelled peptides were used (excitation 495 nm, emission: 535 nm) and the FP signal was recorded in mP on a SpectraMax iD5 Multi‐Mode Microplate Reader (Molecular Devices) by measuring the emitted light in two angels. The measurements were performed at room temperature and prepared in nonbinding black half area 96‐well microplates (Corning®; 50 μl/well). For measuring direct binding, that is saturation curves, a 1:1 dilution series of protein domain (25 μl/well) was generated in 50 mM sodium phosphate buffer pH 7.4 and the measurement performed with 5 nM FITC‐labelled peptide (25 μl/well). The buffer‐corrected values were subsequently plotted with PRISM and fitted to the quadratic equation (Gianni et al, [2005]).
(§2) The 1:1 dilution series in this experiment was performed with the unlabelled peptide in 50 mM sodium phosphate buffer pH 7.4, so that each well‐contained unlabelled peptide (25 μl) at a certain concentration and pre‐formed complex (25 μl). The KD values of this indirectly monitored binding event were calculated as described previously (Nikolovska‐Coleska et al, [2004]). All measurements were at least in technical triplicates as well as biological duplicates when indicated. An amplitude shift between repeat measurements in the displacement experiments was occasionally observed due to variations in the protein preparations. If that was the case, the “active” protein concentration was back‐calculated according to the quadratic equation from the saturation curves performed in parallel. By comparing the active protein concentrations in the complex between different protein preparations, the amplitude was normalised.

[2] = biological target: T2, MAP1LC3B (Homo sapiens, UniProt Q9GZQ8); assay: FP displacement assay, MAP1LC3B; conditions: read-out: KD values ± SEM
T2 construct: GST (cleaved yes); made in house; host or cells: Escherichia coli BL21-Gold(DE3)
Procedure: as §1, §2

[3] = biological target: T3, MAP1LC3B ATG8 (Homo sapiens, UniProt Q9GZQ8); assay: ITC, MAP1LC3B ATG8; conditions: for Kd: ITC (iTC200), 50 mM sodium phosphate pH 7.4, 1 mM DTT, average of the runs, at least technical triplicates
T3 construct: MAP1LC3B ATG8; made in house; host or cells: Escherichia coli BL21-Gold(DE3)

[4] = biological target: T4, MAP1LC3A (Homo sapiens, UniProt Q9H492); assay: FP displacement assay, MAP1LC3A
T4 construct: GST (cleaved yes); made in house; host or cells: Escherichia coli BL21-Gold(DE3)

[5] = ITC single run: date 200402, injection 1
[6] = ITC single run: date 200402, injection 2
[7] = ITC single run: date 200402, injection 3

T1 sequence (P60520 2-115): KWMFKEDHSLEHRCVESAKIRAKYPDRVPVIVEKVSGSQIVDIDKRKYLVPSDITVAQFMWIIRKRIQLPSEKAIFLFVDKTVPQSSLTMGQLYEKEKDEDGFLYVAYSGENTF

Row | Compound | Kd ([1]; read-out: KD values ± SEM) | Kd [2] | Kd [3] | Ka [3, 5] | Ka [3, 6] | Ka [3, 7] | other results
1 | CC(=O)N[C@@H](C)C(=O)N[C@@H](CC(N)=O)C(=O)N[C@@H](CO)C(=O)N[C@@H](Cc1c[nH]c2ccccc12)C(=O)N[C@@H](CCC(N)=O)C(=O)N[C@@H](CC(C)C)C(=O)N[C@H](C(=O)N[C@@H](CCC(=O)O)C(=O)N[C@H](C(=O)N1CCC[C@H]1C(=O)N[C@@H](CCC(=O)O)C(=O)N[C@@H](CCCCN)C(=O)N[C@@H](CCCNC(=N)N)C(=O)N[C@@H](CCCCN)C(=O)N[C@@H](CCC(=O)O)C(=O)N[C@@H](CCC(=O)O)C(N)=O)[C@@H](C)O)C(C)C [DLGAP4_907–922 wt] (Ac-ANSWQLVETPEKRKEE-NH2) | 174 ± 22 µM |  |  |  |  |  | 
2 | CC(=O)N[C@@H](CC(C)C)C(=O)N[C@@H](CCC(=O)O)C(=O)N[C@@H](CC(=O)O)C(=O)N[C@@H](CC(=O)O)C(=O)N[C@@H](CCC(=O)O)C(=O)N[C@@H](CCC(N)=O)C(=O)N[C@@H](Cc1ccccc1)C(=O)N[C@H](C(=O)N[C@@H](COP(=O)(O)O)C(=O)N[C@@H](CC(C)C)C(=O)N[C@@H](Cc1ccc(O)cc1)C(=O)NCC(=O)N[C@H](C(=O)N[C@@H](CCC(=O)O)C(=O)N[C@@H](CCC(=O)O)C(=O)N[C@@H](Cc1ccc(O)cc1)C(N)=O)[C@@H](C)O)C(C)C [TBK1_164–179 pS] | 2.8 ± 0.6 µM | 1.3 ± 0.3 µM | 2.67 µM | 270000 | 480000 | 520000 | 
3 | CC(=O)N[C@@H](C)C(=O)N[C@@H](CC(N)=O)C(=O)N[C@@H](CO)C(=O)N[C@@H](Cc1c[nH]c2ccccc12)C(=O)N[C@@H](CCC(N)=O)C(=O)N[C@@H](CC(C)C)C(=O)N[C@H](C(=O)N[C@@H](CCC(=O)O)C(=O)N[C@H](C(=O)N1CCC[C@H]1C(=O)N[C@@H](CCC(=O)O)C(=O)N[C@@H](CCCCN)C(=O)N[C@@H](CCCNC(=N)N)C(=O)N[C@@H](CCCCN)C(=O)N[C@@H](CCC(=O)O)C(=O)N[C@@H](CCC(=O)O)C(N)=O)[C@@H](C)OP(=O)(O)O)C(C)C [DLGAP4_907–922 pS] (Ac-ANSWQLVE[pT]PEKRKEE-NH2) |  |  |  |  |  |  | Kd [1]: 150 ± 32 µM
4 | CC(=O)N[C@@H](CC(C)C)C(=O)N[C@@H](CCC(=O)O)C(=O)N[C@@H](CC(=O)O)C(=O)N[C@@H](CC(=O)O)C(=O)N[C@@H](CCC(=O)O)C(=O)N[C@@H](CCC(N)=O)C(=O)N[C@@H](Cc1ccccc1)C(=O)N[C@H](C(=O)N[C@@H](CO)C(=O)N[C@@H](CC(C)C)C(=O)N[C@@H](Cc1ccc(O)cc1)C(=O)NCC(=O)N[C@H](C(=O)N[C@@H](CCC(=O)O)C(=O)N[C@@H](CCC(=O)O)C(=O)N[C@@H](Cc1ccc(O)cc1)C(N)=O)[C@@H](C)O)C(C)C [TBK1_164–179 wt] | 19 ± 4 µM | 10.5 ± 0.1 µM | 8 µM | 143000 | 170000 | 144000 | Ka ([3]; ITC single run: date 2101 new, injection 1): 84300
5 | CC(=O)N[C@@H](Cc1ccc(O)cc1)C(=O)N[C@@H](CCCCN)C(=O)N[C@@H](CCCCN)C(=O)N[C@@H](CCC(N)=O)C(=O)N[C@@H](CC(C)C)C(=O)N[C@@H](CCCCN)C(=O)N[C@@H](CCCNC(=N)N)C(=O)N[C@@H](Cc1ccccc1)C(=O)N[C@@H](COP(=O)(O)O)C(=O)N[C@H](C(=O)N[C@@H](CCC(=O)O)C(=O)N[C@@H](CCC(=O)O)C(=O)N[C@@H](Cc1ccccc1)C(=O)N[C@H](C(=O)N[C@@H](CC(C)C)C(=O)N[C@@H](CC(C)C)C(=O)O)C(C)C)[C@@H](C)O [ATG4C444–458 pS] | 0.1 ± 0.2 µM | 1.9 ± 0.3 µM |  |  |  |  | IC50 ([4]; Fig 4B, MAP1LC3A ATG8, FP displacement, technical triplicates, read-out: IC50 values of displacement curves, with SEM): 5.5 ± 0.7 µM; Kd ([4]; read-out: KD values ± SEM): 1.3 ± 0.1 µM
6 | CC(=O)N[C@@H](CCC(N)=O)C(=O)N[C@@H](CC(N)=O)C(=O)N[C@@H](CC(C)C)C(=O)N[C@@H](CO)C(=O)N[C@@H](CCCNC(=N)N)C(=O)N[C@@H](CO)C(=O)N[C@@H](Cc1c[nH]c2ccccc12)C(=O)N[C@@H](Cc1c[nH]cn1)C(=O)N[C@@H](CC(=O)O)C(=O)N[C@H](C(=O)N[C@@H](CCC(N)=O)C(=O)N[C@H](C(=O)N[C@@H](CO)C(=O)N[C@@H](CO)C(=O)N[C@@H](C)C(=O)N[C@@H](Cc1ccc(O)cc1)C(N)=O)C(C)C)C(C)C [TPD52L2_91–106 wt] |  | 760 ± 150 µM |  |  |  |  | 
